Reference: ChEMBL document CHEMBL1149703 (Bioorg Med Chem Lett, 2007)

How the values were obtained:
[1] = target: cAMP-dependent protein kinase catalytic subunit alpha (Homo sapiens, UniProt P17612); assay: Inhibition of cAPK Calpha in presence of 1 mM ATP
[2] = target: T1, AMP-activated protein kinase, AMPK (Homo sapiens) (UniProt P54646+O43741+P54619+Q9UGJ0+Q9Y478+Q13131+Q9UGI9); assay: Inhibition of AMPK assessed as residual activity at 0.01 uM; format: protein-complex assay
[3] = target: T1, AMP-activated protein kinase, AMPK (Homo sapiens); assay: Inhibition of AMPK assessed as residual activity at 1 uM; format: protein-complex assay
[4] = target: Serine/threonine-protein kinase Sgk1 (Homo sapiens) (UniProt O00141); assay: Inhibition of SGK1 assessed as residual activity at 0.01 uM
[5] = target: Serine/threonine-protein kinase Sgk1 (Homo sapiens) (UniProt O00141); assay: Inhibition of SGK1 assessed as residual activity at 1 uM
[6] = target: Calcium/calmodulin-dependent protein kinase type 1 (Homo sapiens) (UniProt Q14012); assay: Inhibition of CAMK1 assessed as residual activity at 0.01 uM
[7] = target: Calcium/calmodulin-dependent protein kinase type 1 (Homo sapiens) (UniProt Q14012); assay: Inhibition of CAMK1 assessed as residual activity at 1 uM
[8] = target: Serine/threonine-protein kinase pim-2 (Homo sapiens) (UniProt Q9P1W9); assay: Inhibition of PIM2 assessed as residual activity at 0.01 uM
Sequence of Serine/threonine-protein kinase pim-2 (Homo sapiens) (Q9P1W9 whole entry, looked up): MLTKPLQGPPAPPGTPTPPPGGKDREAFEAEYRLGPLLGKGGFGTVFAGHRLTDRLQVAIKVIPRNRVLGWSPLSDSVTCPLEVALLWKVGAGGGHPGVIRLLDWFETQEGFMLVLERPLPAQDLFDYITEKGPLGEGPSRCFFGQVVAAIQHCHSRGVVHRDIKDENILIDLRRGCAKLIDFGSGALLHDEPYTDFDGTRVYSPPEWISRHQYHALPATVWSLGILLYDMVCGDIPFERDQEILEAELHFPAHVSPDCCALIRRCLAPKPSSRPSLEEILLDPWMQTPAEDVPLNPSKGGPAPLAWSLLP

[9] = target: Serine/threonine-protein kinase pim-2 (Homo sapiens) (UniProt Q9P1W9); assay: Inhibition of PIM2 assessed as residual activity at 1 uM
[10] = target: Serine/threonine-protein kinase Chk1 (Homo sapiens) (UniProt O14757); assay: Inhibition of CHK1 assessed as residual activity at 0.01 uM
[11] = target: Serine/threonine-protein kinase Chk1 (Homo sapiens) (UniProt O14757); assay: Inhibition of CHK1 assessed as residual activity at 1 uM
[12] = target: 3-phosphoinositide-dependent protein kinase 1 (Homo sapiens) (UniProt O15530); assay: Inhibition of PDK1 assessed as residual activity at 0.01 uM
Sequence of 3-phosphoinositide-dependent protein kinase 1 (Homo sapiens) (O15530 whole entry): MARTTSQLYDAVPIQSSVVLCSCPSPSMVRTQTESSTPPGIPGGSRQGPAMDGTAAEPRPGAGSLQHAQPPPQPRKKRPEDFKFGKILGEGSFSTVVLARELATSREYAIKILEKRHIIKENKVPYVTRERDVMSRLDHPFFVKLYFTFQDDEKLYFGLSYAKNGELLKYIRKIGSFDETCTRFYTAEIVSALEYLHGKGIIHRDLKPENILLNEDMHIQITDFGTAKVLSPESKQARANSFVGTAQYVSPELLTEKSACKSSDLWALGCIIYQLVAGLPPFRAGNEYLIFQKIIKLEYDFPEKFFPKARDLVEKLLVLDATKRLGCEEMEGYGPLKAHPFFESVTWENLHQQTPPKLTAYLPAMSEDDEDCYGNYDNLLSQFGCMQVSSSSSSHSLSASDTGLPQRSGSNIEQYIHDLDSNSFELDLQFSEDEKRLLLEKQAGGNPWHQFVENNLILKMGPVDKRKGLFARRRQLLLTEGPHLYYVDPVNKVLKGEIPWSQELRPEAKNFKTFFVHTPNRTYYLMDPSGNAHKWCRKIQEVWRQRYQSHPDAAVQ

Homo sapiens [13] = species: Homo sapiens; assay: Inhibition of PKA assessed as residual activity at 0.01 uM
Homo sapiens [14] = species: Homo sapiens; assay: Inhibition of PKA assessed as residual activity at 1 uM
[15] = target: RAC-beta serine/threonine-protein kinase (Homo sapiens) (UniProt P31751); assay: Inhibition of PKBbeta assessed as residual activity at 0.01 uM
Sequence of RAC-beta serine/threonine-protein kinase (Homo sapiens) (P31751 whole entry): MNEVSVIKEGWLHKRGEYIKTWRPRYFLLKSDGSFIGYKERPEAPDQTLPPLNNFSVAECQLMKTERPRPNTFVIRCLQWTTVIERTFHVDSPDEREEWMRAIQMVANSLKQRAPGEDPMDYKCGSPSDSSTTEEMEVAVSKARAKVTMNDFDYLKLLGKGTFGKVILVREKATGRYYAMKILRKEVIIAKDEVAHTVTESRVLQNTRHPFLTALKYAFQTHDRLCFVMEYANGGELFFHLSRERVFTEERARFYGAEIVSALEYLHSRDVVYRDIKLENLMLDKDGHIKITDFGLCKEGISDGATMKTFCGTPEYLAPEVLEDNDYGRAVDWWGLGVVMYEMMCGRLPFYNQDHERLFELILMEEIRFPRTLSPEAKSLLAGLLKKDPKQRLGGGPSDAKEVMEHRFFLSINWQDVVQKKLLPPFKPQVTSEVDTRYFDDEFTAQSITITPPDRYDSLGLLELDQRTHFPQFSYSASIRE

[16] = target: RAC-beta serine/threonine-protein kinase (Homo sapiens) (UniProt P31751); assay: Inhibition of PKBbeta assessed as residual activity at 1 uM
[17] = target: Serine/threonine-protein kinase N2 (Homo sapiens) (UniProt Q16513); assay: Inhibition of PRK2 assessed as residual activity at 0.01 uM
[18] = target: Serine/threonine-protein kinase N2 (Homo sapiens) (UniProt Q16513); assay: Inhibition of PRK2 assessed as residual activity at 1 uM
[19] = target: Serine/threonine-protein kinase pim-1 (Homo sapiens) (UniProt P11309); assay: Inhibition of PIM1 assessed as residual activity at 0.01 uM
Sequence of Serine/threonine-protein kinase pim-1 (Homo sapiens) (P11309 whole entry, looked up): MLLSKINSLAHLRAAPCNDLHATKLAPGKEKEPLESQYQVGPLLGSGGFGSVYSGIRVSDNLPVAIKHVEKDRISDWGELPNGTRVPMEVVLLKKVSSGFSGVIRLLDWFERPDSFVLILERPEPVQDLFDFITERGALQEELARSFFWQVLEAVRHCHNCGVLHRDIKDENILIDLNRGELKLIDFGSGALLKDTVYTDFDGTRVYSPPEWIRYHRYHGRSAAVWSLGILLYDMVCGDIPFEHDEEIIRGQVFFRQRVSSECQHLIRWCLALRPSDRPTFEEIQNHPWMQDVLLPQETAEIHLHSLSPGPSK

[20] = target: Serine/threonine-protein kinase pim-1 (Homo sapiens) (UniProt P11309); assay: Inhibition of PIM1 assessed as residual activity at 1 uM
[21] = target: Ribosomal protein S6 kinase beta-1 (Homo sapiens) (UniProt P23443); assay: Inhibition of S6K1 assessed as residual activity at 0.01 uM
[22] = target: Ribosomal protein S6 kinase beta-1 (Homo sapiens) (UniProt P23443); assay: Inhibition of S6K1 assessed as residual activity at 1 uM
[23] = target: Serine/threonine-protein kinase PAK 5 (Homo sapiens) (UniProt Q9P286); assay: Inhibition of PAK5 assessed as residual activity at 0.01 uM
Sequence of Serine/threonine-protein kinase PAK 5 (Homo sapiens) (Q9P286 whole entry, looked up): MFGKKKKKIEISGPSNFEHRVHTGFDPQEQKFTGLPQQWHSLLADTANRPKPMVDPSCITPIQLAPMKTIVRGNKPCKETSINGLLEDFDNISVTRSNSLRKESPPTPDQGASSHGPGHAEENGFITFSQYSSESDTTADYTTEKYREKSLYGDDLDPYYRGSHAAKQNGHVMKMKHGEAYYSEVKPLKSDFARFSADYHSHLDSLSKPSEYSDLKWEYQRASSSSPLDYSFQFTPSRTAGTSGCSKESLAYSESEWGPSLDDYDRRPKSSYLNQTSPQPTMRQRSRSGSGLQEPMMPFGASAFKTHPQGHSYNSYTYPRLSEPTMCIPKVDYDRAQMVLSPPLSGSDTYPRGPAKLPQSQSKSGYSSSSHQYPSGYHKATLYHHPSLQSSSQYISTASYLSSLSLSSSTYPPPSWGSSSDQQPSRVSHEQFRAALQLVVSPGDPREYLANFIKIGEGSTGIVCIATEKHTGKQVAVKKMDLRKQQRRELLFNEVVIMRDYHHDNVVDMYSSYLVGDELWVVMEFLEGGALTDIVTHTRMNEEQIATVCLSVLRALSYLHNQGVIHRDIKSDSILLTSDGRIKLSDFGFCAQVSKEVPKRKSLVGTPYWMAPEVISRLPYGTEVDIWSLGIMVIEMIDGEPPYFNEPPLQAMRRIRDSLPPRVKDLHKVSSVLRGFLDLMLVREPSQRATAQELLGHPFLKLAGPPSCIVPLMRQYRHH

[24] = target: Serine/threonine-protein kinase PAK 5 (Homo sapiens) (UniProt Q9P286); assay: Inhibition of PAK5 assessed as residual activity at 1 uM
[25] = target: Maternal embryonic leucine zipper kinase (Homo sapiens) (UniProt Q14680); assay: Inhibition of MELK assessed as residual activity at 0.01 uM
[26] = target: Maternal embryonic leucine zipper kinase (Homo sapiens) (UniProt Q14680); assay: Inhibition of MELK assessed as residual activity at 1 uM
[27] = target: 3-phosphoinositide-dependent protein kinase 1 (Homo sapiens) (UniProt O15530); assay: Inhibition of PDK1 assessed as residual activity at 1 uM
[28] = target: Ribosomal protein S6 kinase alpha-3 (Homo sapiens) (UniProt P51812); assay: Inhibition of RSK2 assessed as residual activity at 0.01 uM
[29] = target: Ribosomal protein S6 kinase alpha-3 (Homo sapiens) (UniProt P51812); assay: Inhibition of RSK2 assessed as residual activity at 1 uM
[30] = target: Protein kinase C alpha type (Homo sapiens) (UniProt P17252); assay: Inhibition of PKCalpha assessed as residual activity at 0.01 uM
[31] = target: Protein kinase C alpha type (Homo sapiens) (UniProt P17252); assay: Inhibition of PKCalpha assessed as residual activity at 1 uM
[32] = target: RAC-alpha serine/threonine-protein kinase (Homo sapiens) (UniProt P31749); assay: Inhibition of PKBalpha assessed as residual activity at 0.01 uM
Sequence of RAC-alpha serine/threonine-protein kinase (Homo sapiens) (P31749 whole entry): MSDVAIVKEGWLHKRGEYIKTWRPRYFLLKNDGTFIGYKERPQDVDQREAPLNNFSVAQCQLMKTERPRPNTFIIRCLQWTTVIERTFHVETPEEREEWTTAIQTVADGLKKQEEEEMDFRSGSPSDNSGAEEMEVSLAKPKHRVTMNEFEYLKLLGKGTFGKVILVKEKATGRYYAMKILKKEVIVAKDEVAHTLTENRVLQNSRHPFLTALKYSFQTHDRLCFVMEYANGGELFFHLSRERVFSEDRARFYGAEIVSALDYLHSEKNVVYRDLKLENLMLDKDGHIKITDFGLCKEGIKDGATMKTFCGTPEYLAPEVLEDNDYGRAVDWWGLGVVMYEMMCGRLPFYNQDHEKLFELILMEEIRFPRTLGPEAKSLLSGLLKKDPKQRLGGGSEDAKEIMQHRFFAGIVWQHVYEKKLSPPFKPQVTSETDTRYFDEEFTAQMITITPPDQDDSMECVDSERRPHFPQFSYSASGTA

[33] = target: RAC-alpha serine/threonine-protein kinase (Homo sapiens) (UniProt P31749); assay: Inhibition of PKBalpha assessed as residual activity at 1 uM
[34] = target: Protein kinase C zeta type (Homo sapiens) (UniProt Q05513); assay: Inhibition of PKCzeta assessed as residual activity at 0.01 uM
[35] = target: Protein kinase C zeta type (Homo sapiens) (UniProt Q05513); assay: Inhibition of PKCzeta assessed as residual activity at 1 uM
[36] = target: Dual specificity tyrosine-phosphorylation-regulated kinase 3 (Homo sapiens) (UniProt O43781); assay: Inhibition of DYRK3 assessed as residual activity at 0.01 uM
[37] = target: Dual specificity tyrosine-phosphorylation-regulated kinase 3 (Homo sapiens) (UniProt O43781); assay: Inhibition of DYRK3 assessed as residual activity at 1 uM
[38] = target: Tyrosine-protein kinase Lck (Homo sapiens) (UniProt P06239); assay: Inhibition of Lck assessed as residual activity at 0.01 uM
Sequence of Tyrosine-protein kinase Lck (Homo sapiens) (P06239 2-509 limits assumed): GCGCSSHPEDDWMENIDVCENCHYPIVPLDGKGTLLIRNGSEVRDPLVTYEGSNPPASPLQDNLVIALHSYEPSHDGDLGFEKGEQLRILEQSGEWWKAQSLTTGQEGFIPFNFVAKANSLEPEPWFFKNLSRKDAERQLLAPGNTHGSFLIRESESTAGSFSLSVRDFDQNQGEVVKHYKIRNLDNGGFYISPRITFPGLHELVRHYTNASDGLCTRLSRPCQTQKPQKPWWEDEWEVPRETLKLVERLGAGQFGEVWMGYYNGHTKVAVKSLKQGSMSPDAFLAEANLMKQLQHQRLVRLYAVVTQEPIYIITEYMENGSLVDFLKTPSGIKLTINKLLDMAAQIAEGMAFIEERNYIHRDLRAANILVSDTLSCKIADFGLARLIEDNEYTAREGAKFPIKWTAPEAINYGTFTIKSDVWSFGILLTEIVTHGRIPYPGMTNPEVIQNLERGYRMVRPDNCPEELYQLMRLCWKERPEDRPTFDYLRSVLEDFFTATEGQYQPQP

[39] = target: Tyrosine-protein kinase Lck (Homo sapiens) (UniProt P06239); assay: Inhibition of Lck assessed as residual activity at 1 uM
[40] = target: Aurora kinase B (Homo sapiens) (UniProt Q96GD4); assay: Inhibition of AURORA B assessed as residual activity at 0.01 uM
Sequence of Aurora kinase B (Homo sapiens) (Q96GD4 whole entry): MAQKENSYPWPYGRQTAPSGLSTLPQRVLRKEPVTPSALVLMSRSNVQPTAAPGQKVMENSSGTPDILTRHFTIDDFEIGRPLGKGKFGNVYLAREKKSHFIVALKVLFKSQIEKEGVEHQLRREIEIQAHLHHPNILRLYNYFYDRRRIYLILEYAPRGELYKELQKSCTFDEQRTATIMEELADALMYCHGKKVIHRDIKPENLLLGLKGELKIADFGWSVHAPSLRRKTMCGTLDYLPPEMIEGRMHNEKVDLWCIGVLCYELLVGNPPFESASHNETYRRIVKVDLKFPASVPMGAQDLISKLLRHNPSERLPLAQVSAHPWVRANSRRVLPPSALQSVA

[41] = target: Aurora kinase B (Homo sapiens) (UniProt Q96GD4); assay: Inhibition of AURORA B assessed as residual activity at 1 uM
[42] = target: Serine/threonine-protein kinase D1 (Homo sapiens) (UniProt Q15139); assay: Inhibition of PKD1 assessed as residual activity at 0.01 uM
[43] = target: Serine/threonine-protein kinase D1 (Homo sapiens) (UniProt Q15139); assay: Inhibition of PKD1 assessed as residual activity at 1 uM
[44] = target: Tyrosine-protein kinase CSK (Homo sapiens) (UniProt P41240); assay: Inhibition of CSK assessed as residual activity at 0.01 uM
Sequence of Tyrosine-protein kinase CSK (Homo sapiens) (P41240 2-450 limits assumed): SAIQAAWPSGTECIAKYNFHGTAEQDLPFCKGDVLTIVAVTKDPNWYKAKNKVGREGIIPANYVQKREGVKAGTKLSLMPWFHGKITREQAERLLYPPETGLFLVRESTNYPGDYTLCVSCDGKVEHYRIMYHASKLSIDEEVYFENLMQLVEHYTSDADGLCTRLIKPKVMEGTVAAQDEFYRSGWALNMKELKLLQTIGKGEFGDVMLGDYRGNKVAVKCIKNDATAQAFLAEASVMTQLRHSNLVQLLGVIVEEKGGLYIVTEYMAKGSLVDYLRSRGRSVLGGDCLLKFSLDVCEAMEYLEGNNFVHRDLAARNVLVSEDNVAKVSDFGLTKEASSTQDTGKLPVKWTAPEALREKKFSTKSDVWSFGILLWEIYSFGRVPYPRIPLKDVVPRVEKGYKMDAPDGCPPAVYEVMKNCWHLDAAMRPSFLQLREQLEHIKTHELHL

[45] = target: Tyrosine-protein kinase CSK (Homo sapiens) (UniProt P41240); assay: Inhibition of CSK assessed as residual activity at 1 uM
[46] = target: Mitogen-activated protein kinase 3 (Homo sapiens) (UniProt P27361); assay: Inhibition of ERK1 assessed as residual activity at 0.01 uM
Sequence of Mitogen-activated protein kinase 3 (Homo sapiens) (P27361 whole entry): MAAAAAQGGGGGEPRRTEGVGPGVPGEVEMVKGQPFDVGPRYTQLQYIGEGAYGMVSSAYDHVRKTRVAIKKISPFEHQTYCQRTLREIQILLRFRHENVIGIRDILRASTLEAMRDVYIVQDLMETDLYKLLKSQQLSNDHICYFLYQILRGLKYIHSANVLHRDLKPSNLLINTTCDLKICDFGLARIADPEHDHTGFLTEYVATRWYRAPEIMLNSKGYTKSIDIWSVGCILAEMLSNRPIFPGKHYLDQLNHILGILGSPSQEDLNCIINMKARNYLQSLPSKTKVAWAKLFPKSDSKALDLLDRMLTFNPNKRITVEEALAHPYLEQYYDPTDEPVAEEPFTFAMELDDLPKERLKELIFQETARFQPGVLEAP

[47] = target: Mitogen-activated protein kinase 3 (Homo sapiens) (UniProt P27361); assay: Inhibition of ERK1 assessed as residual activity at 1 uM
[48] = target: Proto-oncogene tyrosine-protein kinase Src (Homo sapiens) (UniProt P12931); assay: Inhibition of Src assessed as residual activity at 0.01 uM
[49] = target: Proto-oncogene tyrosine-protein kinase Src (Homo sapiens) (UniProt P12931); assay: Inhibition of Src assessed as residual activity at 1 uM
[50] = target: Glycogen synthase kinase-3 beta (Homo sapiens) (UniProt P49841); assay: Inhibition of GSK3-beta assessed as residual activity at 0.01 uM
[51] = target: Glycogen synthase kinase-3 beta (Homo sapiens) (UniProt P49841); assay: Inhibition of GSK3-beta assessed as residual activity at 1 uM
[52] = target: T2, Casein kinase II (Homo sapiens) (UniProt P67870+P68400+P19784); assay: Inhibition of CK2 assessed as residual activity at 0.1 uM; format: protein-complex assay
[53] = target: T2, Casein kinase II (Homo sapiens); assay: Inhibition of CK2 assessed as residual activity at 1 uM; format: protein-complex assay
[54] = target: MAP kinase-activated protein kinase 3 (Homo sapiens) (UniProt Q16644); assay: Inhibition of MAPKAP K3 assessed as residual activity at 0.01 uM
[55] = target: MAP kinase-activated protein kinase 3 (Homo sapiens) (UniProt Q16644); assay: Inhibition of MAPKAP K3 assessed as residual activity at 1 uM
[56] = target: MAP kinase-activated protein kinase 5 (Homo sapiens) (UniProt Q8IW41); assay: Inhibition of PRAK assessed as residual activity at 0.01 uM
[57] = target: MAP kinase-activated protein kinase 5 (Homo sapiens) (UniProt Q8IW41); assay: Inhibition of PRAK assessed as residual activity at 1 uM
[58] = target: Ribosomal protein S6 kinase alpha-1 (Homo sapiens) (UniProt Q15418); assay: Inhibition of RSK1 assessed as residual activity at 0.01 uM
[59] = target: Ribosomal protein S6 kinase alpha-1 (Homo sapiens) (UniProt Q15418); assay: Inhibition of RSK1 assessed as residual activity at 1 uM
[60] = target: Mitogen-activated protein kinase 10 (Homo sapiens) (UniProt P53779); assay: Inhibition of JNK3 assessed as residual activity at 0.01 uM
[61] = target: Mitogen-activated protein kinase 10 (Homo sapiens) (UniProt P53779); assay: Inhibition of JNK3 assessed as residual activity at 1 uM
[62] = target: Serine/threonine-protein kinase Nek6 (Homo sapiens) (UniProt Q9HC98); assay: Inhibition of NEK6 assessed as residual activity at 0.01 uM
Sequence of Serine/threonine-protein kinase Nek6 (Homo sapiens) (Q9HC98 whole entry): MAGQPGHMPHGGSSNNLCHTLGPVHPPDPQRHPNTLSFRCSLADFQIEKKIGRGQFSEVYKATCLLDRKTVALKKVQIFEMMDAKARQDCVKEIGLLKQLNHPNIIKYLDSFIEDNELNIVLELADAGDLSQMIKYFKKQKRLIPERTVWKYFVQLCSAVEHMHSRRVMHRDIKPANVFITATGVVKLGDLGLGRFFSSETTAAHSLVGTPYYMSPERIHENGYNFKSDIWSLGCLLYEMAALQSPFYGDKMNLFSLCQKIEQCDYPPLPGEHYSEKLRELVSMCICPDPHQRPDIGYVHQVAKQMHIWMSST

[63] = target: Serine/threonine-protein kinase Nek6 (Homo sapiens) (UniProt Q9HC98); assay: Inhibition of NEK6 assessed as residual activity at 1 uM; format: functional
Homo sapiens [64] = species: Homo sapiens; assay: Inhibition of CDK2/cyclin A assessed as residual activity at 0.01 uM
Homo sapiens [65] = species: Homo sapiens; assay: Inhibition of CDK2/cyclin A assessed as residual activity at 1 uM

## COC(=O)[C@@H]1C[C@@H](O)[C@H](n2cnc3c(N)ncnc32)C1
[1]
  IC50: 168 µM

## COC(=O)[C@H]1C[C@H](O)[C@@H](n2cnc3c(N)ncnc32)C1
[1]
  IC50: > 1000 µM

## N=C(N)NCCC[C@H](NC(=O)[C@H](CCCNC(=N)N)NC(=O)[C@H](CCCNC(=N)N)NC(=O)[C@H](CCCNC(=N)N)NC(=O)[C@H](CCCNC(=N)N)NC(=O)[C@H](CCCNC(=N)N)NC(=O)CCCCCNC(=O)[C@@H]1C[C@@H](O)[C@H](n2cnc3c(N)ncnc32)C1)C(N)=O
[2]
  Activity: 70%
[3]
  Activity: 12%
[4]
  Activity: 40%
[5]
  Activity: 19%
[6]
  Activity: 62%
[7]
  Activity: 19%
[8]
  Activity: 103%
[9]
  Activity: 20%
[10]
  Activity: 84%
[11]
  Activity: 27%
[12]
  Activity: 76%
Homo sapiens [13]
  Activity: 7%
Homo sapiens [14]
  Activity: 0%
[15]
  Activity: 74%
[16]
  Activity: 2%
[17]
  Activity: 59%
[18]
  Activity: 3%
[19]
  Activity: 92%
[20]
  Activity: 6%
[21]
  Activity: 81%
[22]
  Activity: 7%
[23]
  Activity: 71%
[24]
  Activity: 10%
[25]
  Activity: 86%
[26]
  Activity: 10%
[27]
  Activity: 28%
[28]
  Activity: 91%
[29]
  Activity: 28%
[30]
  Activity: 96%
[31]
  Activity: 30%
[32]
  Activity: 25%
[33]
  Activity: 32%
[34]
  Activity: 83%
[35]
  Activity: 33%
[36]
  Activity: 81%
[37]
  Activity: 51%
[38]
  Activity: 86%
[39]
  Activity: 63%
[40]
  Activity: 76%
[41]
  Activity: 72%
[42]
  Activity: 81%
[43]
  Activity: 73%
[44]
  Activity: 97%
[45]
  Activity: 77%
[46]
  Activity: 82%
[47]
  Activity: 84%
[48]
  Activity: 85%
[49]
  Activity: 84%
[50]
  Activity: 82%
[51]
  Activity: 88%
[52]
  Activity: 86%
[53]
  Activity: 88%
[54]
  Activity: 97%
[55]
  Activity: 91%
[56]
  Activity: 88%
[57]
  Activity: 96%
[58]
  Activity: 98%
[59]
  Activity: 98%
[60]
  Activity: 103%
[61]
  Activity: 104%
[62]
  Activity: 101%
[63]
  Activity: 111%
Homo sapiens [64]
  Activity: 103%
Homo sapiens [65]
  Activity: 114%
